# What was measured:
# Experiment in all cases: biochemical
# Set-up in all cases: KINOMEscan competition binding, DNA-tagged kinase against immobilised ligand, qPCR read-out
# [1] = target: AURKA (Homo sapiens, UniProt O14965); conditions: read-out: Percent Control
# Protocol: (§1) The KINOMEscan^TM kinase assays[65] were performed by Eurofins DiscoverX Corporation. For each kinase, the assay relies on the ability of the tested compound to compete against an immobilised ligand for binding to the DNA-tagged kinase. RT-qPCR is then used to measure the quantity of kinase molecules bound to the immobilised ligand, which is decreased if the tested compound competed with the kinase-ligand interaction. An 11-point 3-fold serial dilution of IDX compound was prepared in 100% DMSO at 100× final test concentration and subsequently diluted to 1× in the assay. […]
# [2] = target: CAMK1D (Homo sapiens, UniProt Q8IU85); conditions: read-out: Percent Control
# Protocol: as §1
# [3] = target: CLK2 (Homo sapiens, UniProt P49760); conditions: read-out: Percent Control
# Chain of CLK2 (P49760 whole entry): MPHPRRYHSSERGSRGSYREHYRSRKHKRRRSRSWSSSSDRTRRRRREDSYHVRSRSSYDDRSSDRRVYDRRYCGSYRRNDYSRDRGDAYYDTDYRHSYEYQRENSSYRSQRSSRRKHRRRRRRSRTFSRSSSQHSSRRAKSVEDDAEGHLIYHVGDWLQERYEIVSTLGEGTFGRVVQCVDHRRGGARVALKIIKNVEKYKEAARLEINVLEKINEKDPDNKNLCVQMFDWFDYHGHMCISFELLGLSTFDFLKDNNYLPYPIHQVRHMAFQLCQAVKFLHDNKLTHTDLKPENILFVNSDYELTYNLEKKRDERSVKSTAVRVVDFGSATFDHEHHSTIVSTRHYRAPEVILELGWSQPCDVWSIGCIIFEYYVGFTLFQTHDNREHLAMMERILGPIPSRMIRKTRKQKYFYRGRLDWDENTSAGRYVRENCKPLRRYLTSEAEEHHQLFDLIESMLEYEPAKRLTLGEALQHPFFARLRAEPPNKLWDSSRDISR
# Protocol: as §1
# [4] = target: DSTYK (Homo sapiens, UniProt Q6XUX3); conditions: read-out: Percent Control
# Protocol: as §1
# [5] = target: EGFR (Homo sapiens, UniProt P00533); conditions: read-out: Percent Control
# Protocol: as §1
# [6] = target: EPHA6 (Homo sapiens, UniProt Q9UF33); conditions: read-out: Percent Control
# Protocol: as §1
# [7] = target: FYN (Homo sapiens, UniProt P06241); conditions: read-out: Percent Control
# Chain of FYN (P06241 whole entry): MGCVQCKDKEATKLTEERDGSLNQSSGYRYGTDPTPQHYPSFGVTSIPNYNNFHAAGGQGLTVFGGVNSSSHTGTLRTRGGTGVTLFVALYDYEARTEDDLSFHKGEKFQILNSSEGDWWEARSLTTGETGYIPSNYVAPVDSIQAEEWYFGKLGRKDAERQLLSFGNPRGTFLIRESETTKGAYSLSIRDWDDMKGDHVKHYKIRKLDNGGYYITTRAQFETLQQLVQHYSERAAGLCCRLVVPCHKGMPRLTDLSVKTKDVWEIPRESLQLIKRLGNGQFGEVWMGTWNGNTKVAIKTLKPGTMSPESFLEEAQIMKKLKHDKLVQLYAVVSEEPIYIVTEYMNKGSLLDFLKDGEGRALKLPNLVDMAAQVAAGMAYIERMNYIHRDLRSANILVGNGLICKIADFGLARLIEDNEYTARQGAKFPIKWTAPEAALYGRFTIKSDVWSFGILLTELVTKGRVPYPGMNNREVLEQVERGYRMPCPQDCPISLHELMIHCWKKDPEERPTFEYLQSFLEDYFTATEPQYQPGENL
# Protocol: as §1
# [8] = target: HIPK1 (Homo sapiens, UniProt Q86Z02); conditions: read-out: Percent Control
# Chain of HIPK1 (Q86Z02 whole entry): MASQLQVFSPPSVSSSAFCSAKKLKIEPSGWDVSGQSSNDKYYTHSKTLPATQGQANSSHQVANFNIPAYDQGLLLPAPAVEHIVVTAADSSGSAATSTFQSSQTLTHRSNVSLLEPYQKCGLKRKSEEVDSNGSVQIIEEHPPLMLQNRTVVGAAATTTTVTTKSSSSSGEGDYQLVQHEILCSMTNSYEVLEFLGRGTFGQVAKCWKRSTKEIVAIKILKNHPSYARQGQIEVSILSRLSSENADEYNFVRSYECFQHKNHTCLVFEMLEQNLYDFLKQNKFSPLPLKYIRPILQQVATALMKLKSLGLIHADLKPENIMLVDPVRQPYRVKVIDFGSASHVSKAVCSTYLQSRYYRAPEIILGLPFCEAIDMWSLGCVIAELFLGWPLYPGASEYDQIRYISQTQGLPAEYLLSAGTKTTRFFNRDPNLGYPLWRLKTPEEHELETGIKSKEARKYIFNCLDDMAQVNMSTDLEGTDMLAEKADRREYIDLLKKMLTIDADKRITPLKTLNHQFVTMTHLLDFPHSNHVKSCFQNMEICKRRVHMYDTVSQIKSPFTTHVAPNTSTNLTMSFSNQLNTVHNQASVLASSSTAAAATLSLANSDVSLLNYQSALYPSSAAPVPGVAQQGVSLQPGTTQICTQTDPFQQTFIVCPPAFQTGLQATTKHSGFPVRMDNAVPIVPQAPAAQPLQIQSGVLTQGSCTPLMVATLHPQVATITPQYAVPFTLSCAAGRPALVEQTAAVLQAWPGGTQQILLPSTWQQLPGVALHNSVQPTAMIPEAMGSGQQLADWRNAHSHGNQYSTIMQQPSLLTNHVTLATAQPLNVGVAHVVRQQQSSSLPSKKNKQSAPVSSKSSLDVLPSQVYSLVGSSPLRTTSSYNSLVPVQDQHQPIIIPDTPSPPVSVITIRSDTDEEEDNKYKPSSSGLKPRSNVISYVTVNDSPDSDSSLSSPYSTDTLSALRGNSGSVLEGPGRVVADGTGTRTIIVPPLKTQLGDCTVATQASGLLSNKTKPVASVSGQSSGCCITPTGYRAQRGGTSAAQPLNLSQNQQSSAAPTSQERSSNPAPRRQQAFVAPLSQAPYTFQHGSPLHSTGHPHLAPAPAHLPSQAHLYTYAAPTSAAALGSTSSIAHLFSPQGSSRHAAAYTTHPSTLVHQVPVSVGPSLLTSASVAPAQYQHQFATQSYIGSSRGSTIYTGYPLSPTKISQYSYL
# Protocol: as §1
# [9] = target: MAP3K3 (Homo sapiens, UniProt Q99759); conditions: read-out: Percent Control
# Chain of MAP3K3 (Q99759 whole entry): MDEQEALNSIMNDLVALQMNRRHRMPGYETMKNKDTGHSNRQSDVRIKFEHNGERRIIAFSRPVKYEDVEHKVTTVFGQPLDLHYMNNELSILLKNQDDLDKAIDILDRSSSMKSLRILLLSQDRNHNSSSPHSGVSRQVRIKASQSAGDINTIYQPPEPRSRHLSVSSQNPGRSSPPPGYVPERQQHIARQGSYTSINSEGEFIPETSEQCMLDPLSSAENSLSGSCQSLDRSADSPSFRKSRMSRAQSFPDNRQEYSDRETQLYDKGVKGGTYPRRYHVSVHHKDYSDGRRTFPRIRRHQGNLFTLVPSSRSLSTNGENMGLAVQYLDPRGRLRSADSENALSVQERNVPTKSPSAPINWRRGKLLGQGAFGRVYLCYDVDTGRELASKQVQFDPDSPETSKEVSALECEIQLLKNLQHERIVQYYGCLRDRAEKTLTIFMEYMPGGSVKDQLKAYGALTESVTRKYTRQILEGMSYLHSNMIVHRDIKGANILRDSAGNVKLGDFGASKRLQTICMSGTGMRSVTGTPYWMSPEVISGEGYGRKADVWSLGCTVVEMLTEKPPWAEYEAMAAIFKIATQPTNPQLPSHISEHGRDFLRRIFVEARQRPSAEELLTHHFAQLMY
# Protocol: as §1
# [10] = target: MAP4K5 (Homo sapiens, UniProt Q9Y4K4); conditions: read-out: Percent Control
# Protocol: as §1
# [11] = target: MAPK13 (Homo sapiens, UniProt O15264); conditions: read-out: Percent Control
# Protocol: as §1
# [12] = target: MKNK1 (Homo sapiens, UniProt Q9BUB5); conditions: read-out: Percent Control
# Protocol: as §1
# [13] = target: PDPK1 (Homo sapiens, UniProt O15530); conditions: read-out: Percent Control
# Protocol: as §1
# [14] = target: PIK3CB (Homo sapiens, UniProt P42338); conditions: read-out: Percent Control
# Chain of PIK3CB (P42338 whole entry): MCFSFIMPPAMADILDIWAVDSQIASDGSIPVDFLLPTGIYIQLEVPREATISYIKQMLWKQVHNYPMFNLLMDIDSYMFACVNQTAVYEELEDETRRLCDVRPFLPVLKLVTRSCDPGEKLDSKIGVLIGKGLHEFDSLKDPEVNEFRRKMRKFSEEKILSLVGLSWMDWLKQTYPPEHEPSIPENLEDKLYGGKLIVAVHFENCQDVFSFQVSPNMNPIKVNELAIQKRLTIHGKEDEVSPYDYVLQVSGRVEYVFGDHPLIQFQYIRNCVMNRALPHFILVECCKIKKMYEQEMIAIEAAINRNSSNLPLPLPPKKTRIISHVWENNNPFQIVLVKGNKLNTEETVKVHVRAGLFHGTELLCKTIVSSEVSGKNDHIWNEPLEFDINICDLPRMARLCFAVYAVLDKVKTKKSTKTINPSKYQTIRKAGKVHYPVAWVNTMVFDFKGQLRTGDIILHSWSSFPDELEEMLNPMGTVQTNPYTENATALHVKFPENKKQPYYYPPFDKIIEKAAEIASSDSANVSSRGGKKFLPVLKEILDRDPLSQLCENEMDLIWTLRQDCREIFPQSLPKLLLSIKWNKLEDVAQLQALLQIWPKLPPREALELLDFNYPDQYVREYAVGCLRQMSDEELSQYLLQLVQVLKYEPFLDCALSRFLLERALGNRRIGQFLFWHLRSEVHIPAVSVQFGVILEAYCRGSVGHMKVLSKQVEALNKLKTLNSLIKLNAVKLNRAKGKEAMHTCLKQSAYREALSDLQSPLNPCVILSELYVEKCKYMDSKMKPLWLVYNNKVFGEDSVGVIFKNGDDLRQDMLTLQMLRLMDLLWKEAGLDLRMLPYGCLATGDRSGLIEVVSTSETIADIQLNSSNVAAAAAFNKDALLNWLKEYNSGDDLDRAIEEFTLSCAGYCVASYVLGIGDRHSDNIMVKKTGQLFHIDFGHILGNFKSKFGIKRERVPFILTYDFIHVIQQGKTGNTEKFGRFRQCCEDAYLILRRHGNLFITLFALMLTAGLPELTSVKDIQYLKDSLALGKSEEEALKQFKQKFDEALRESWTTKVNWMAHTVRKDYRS
# Protocol: as §1
# [15] = target: PIK3CD (Homo sapiens, UniProt O00329); conditions: read-out: Percent Control
# Protocol: as §1
# [16] = target: PLK1 (Homo sapiens, UniProt P53350); conditions: read-out: Percent Control
# Protocol: as §1
# [17] = target: PRKCQ (Homo sapiens, UniProt Q04759); conditions: read-out: Percent Control
# Protocol: as §1
# [18] = target: TAOK1 (Homo sapiens, UniProt Q7L7X3)
# Chain of TAOK1 (Q7L7X3 whole entry): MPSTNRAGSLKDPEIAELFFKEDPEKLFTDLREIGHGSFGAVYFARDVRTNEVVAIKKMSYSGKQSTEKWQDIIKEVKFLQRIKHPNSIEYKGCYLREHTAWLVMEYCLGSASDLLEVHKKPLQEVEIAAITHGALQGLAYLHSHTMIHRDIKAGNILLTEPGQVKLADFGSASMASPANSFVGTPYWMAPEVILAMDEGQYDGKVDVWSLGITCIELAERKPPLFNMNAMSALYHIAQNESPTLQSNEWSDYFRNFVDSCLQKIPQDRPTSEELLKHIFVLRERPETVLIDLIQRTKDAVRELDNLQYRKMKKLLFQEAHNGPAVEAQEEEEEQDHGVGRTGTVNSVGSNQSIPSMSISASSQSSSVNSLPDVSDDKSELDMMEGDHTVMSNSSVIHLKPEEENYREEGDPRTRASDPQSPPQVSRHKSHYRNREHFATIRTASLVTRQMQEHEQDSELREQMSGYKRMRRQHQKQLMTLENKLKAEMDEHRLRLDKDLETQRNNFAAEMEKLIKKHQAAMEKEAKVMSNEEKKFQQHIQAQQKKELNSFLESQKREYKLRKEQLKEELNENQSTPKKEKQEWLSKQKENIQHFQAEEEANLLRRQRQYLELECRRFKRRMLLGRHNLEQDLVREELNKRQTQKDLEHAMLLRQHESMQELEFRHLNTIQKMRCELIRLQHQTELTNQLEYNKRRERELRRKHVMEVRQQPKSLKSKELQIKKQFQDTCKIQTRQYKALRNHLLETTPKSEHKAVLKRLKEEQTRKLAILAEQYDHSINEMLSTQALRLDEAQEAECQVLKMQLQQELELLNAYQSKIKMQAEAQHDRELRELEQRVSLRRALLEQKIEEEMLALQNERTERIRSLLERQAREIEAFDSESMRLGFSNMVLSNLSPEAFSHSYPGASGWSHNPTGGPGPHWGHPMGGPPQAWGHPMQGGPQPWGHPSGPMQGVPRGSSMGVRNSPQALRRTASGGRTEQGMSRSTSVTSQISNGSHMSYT
# Protocol: as §1
# [19] = target: TSSK3 (Homo sapiens, UniProt Q96PN8); conditions: read-out: Percent Control
# Protocol: as §1
# [20] = target: T1, TYK2(JH2domain-pseudokinase) (Homo sapiens, UniProt P29597); conditions: read-out: Percent Control
# T1 construct: JH2 domain pseudokinase
# Protocol: as §1
structure (smiles),measurement,setting,value
"Oc1ccc(C2=Cc3ccc(O)cc3OC2)cc1 [compound 1, idronoxil]",remaining binding at 10 µM,[1],92%
same,remaining binding at 10 µM,[2],100%
same,remaining binding at 10 µM,[3],69%
same,remaining binding at 10 µM,[4],74%
same,remaining binding at 10 µM,[5],83%
same,remaining binding at 10 µM,[6],99%
same,remaining binding at 10 µM,[7],89%
same,remaining binding at 10 µM,[8],65%
same,remaining binding at 10 µM,[9],81%
same,remaining binding at 10 µM,[10],70%
same,remaining binding at 10 µM,[11],100%
same,remaining binding at 10 µM,[12],55%
same,remaining binding at 10 µM,[13],79%
same,remaining binding at 10 µM,[14],98%
same,remaining binding at 10 µM,[15],86%
same,remaining binding at 10 µM,[16],77%
same,remaining binding at 10 µM,[17],73%
same,Kd,[18],4.7 µM
same,remaining binding at 10 µM,[18]; read-out: Percent Control,16%
same,remaining binding at 10 µM,[19],59%
same,remaining binding at 10 µM,[20],8.3%
